Measurements taken from patent publication US6737383B1, “Herbicidal oxadiazolidines” (priority 1999, dated 2004).

Legend:
purple nutsedge = experiment: Test B pre/postemergence purple nutsedge; assay type: in vivo, Cyperus rotundus
Outline: (§1)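 Response is a visual 0-to-10 score relative to untreated plants, where 0 means no effect and 10 means complete control, taken twelve to sixteen days after application. Treatments went onto soil at planting and onto foliage of 1- to 4-leaf plants, using a surfactant-containing non-phytotoxic solvent.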

wheat = experiment: Test B pre/postemergence wheat; assay type: in vivo, Triticum aestivum
Outline: as §1

soybean = experiment: Test B pre/postemergence soybean; assay type: in vivo, Glycine max
Outline: as §1

cocklebur = experiment: Test B pre/postemergence cocklebur; assay type: in vivo, Xanthium strumarium
Outline: as §1

bedstraw = experiment: Test B pre/postemergence bedstraw; assay type: in vivo, Galium aparine
Outline: as §1

velvetleaf = experiment: Test B pre/postemergence velvetleaf; assay type: in vivo, Abutilon theophrasti
Outline: as §1

rape = experiment: Test B pre/postemergence rape; assay type: in vivo, Brassica napus
Outline: as §1

surinam grass = experiment: Test B pre/postemergence surinam grass; assay type: in vivo, Brachiaria decumbens
Outline: as §1

morningglory = experiment: Test B pre/postemergence morningglory; assay type: in vivo, Ipomoea hederacea
Outline: as §1

giant foxtail = experiment: Test B pre/postemergence giant foxtail; assay type: in vivo, Setaria faberii
Outline: as §1

sugar beet = experiment: Test B pre/postemergence sugar beet; assay type: in vivo, Beta vulgaris
Outline: as §1

blackgrass = experiment: Test B pre/postemergence blackgrass; assay type: in vivo, Alopecurus myosuroides
Outline: as §1

wild oat = experiment: Test B pre/postemergence wild oat; assay type: in vivo, Avena fatua
Outline: as §1

crabgrass = experiment: Test B pre/postemergence crabgrass; assay type: in vivo, Digitaria sanguinalis
Outline: as §1

pigweed = experiment: Test B pre/postemergence pigweed; assay type: in vivo, Amaranthus retroflexus
Outline: as §1

corn = experiment: Test B pre/postemergence corn; assay type: in vivo, Zea mays
Outline: as §1

[1] = Postemergence, Rate 62 g/ha, scale 0 to 10, 0 is no effect, 10 is complete control
[2] = Postemergence, Rate 250 g/ha, scale 0 to 10, 0 no effect, 10 complete control
[3] = Preemergence, Rate 62 g/ha, scale 0 to 10, 0 is no effect, 10 is complete control
[4] = Preemergence, Rate 125 g/ha, scale 0 to 10 (0 no effect, 10 complete control)
[5] = Preemergence, Rate 250 g/ha, scale of 0 to 10 where 0 is no effect and 10 is complete control
[6] = Preemergence, Rate 500 g/ha, scale 0 (no effect) to 10 (complete control)
[7] = Rate 125 g/ha, Postemergence, scale 0 to 10, 0 no effect, 10 complete control
[8] = Rate 500 g/ha, Postemergence, 0 to 10 scale (0 no effect, 10 complete control)
[9] = Preemergence, Rate 125 g/ha, scale of 0 to 10 where 0 is no effect and 10 is complete control
[10] = Rate 1000 g/ha, Preemergence, scale 0 to 10 (0 no effect, 10 complete control)
[11] = Preemergence, Rate 250 g/ha, scale 0 to 10 (0 no effect, 10 complete control)
[12] = Preemergence, Rate 500 g/ha, scale of 0 to 10 where 0 is no effect and 10 is complete control

## Cc1ccccc1-n1c(=O)on(C(=O)N(c2ccc(C(F)(F)F)cc2)C(C)C)c1=O [Compound 39]
Purple nutsedge; [1]
  Nutsedge plant response rating: 0
Purple nutsedge; [2]
  Nutsedge plant response rating: 0
Purple nutsedge; [3]
  Plant response rating, Nutsedge: 0
Purple nutsedge; [4]
  Plant response rating, Nutsedge: 0
Purple nutsedge; [5]
  Plant response rating, Nutsedge: 0
Purple nutsedge; [6]
  Nutsedge plant response rating: 0
Purple nutsedge; [7]
  Nutsedge plant response rating: 0
Purple nutsedge; [8]
  Nutsedge plant response rating: 0
wheat; [1]
  Wheat plant response rating: 0
wheat; [2]
  Wheat plant response rating: 0
wheat; [3]
  Plant response rating, Wheat: 0
wheat; [4]
  Plant response rating, Wheat: 0
wheat; [5]
  Plant response rating, Wheat: 0
wheat; [6]
  Wheat plant response rating: 0
wheat; [7]
  Wheat plant response rating: 0
soybean; [1]
  Soybean plant response rating: 3
soybean; [2]
  Soybean plant response rating: 4
soybean; [3]
  Plant response rating, Soybean: 0
soybean; [4]
  Plant response rating, Soybean: 0
soybean; [5]
  Plant response rating, Soybean: 0
soybean; [6]
  Soybean plant response rating: 0
soybean; [7]
  Soybean plant response rating: 4
cocklebur; [1]
  Cocklebur plant response rating: 0
cocklebur; [2]
  Cocklebur plant response rating: 0
cocklebur; [3]
  Plant response rating, Cocklebur: 0
cocklebur; [4]
  Plant response rating, Cocklebur: 0
cocklebur; [5]
  Plant response rating, Cocklebur: 0
cocklebur; [6]
  Cocklebur plant response rating: 0
cocklebur; [7]
  Cocklebur plant response rating: 0
cocklebur; [8]
  Cocklebur plant response rating: 0
bedstraw; [3]
  Plant response rating, Bedstraw: 0
bedstraw; [4]
  Plant response rating, Bedstraw: 0
bedstraw; [5]
  Plant response rating, Bedstraw: 0
bedstraw; [6]
  Bedstraw plant response rating: 0
bedstraw; [8]
  Bedstraw plant response rating: 0
velvetleaf; [2]
  Velvetleaf plant response rating: 0
velvetleaf; [3]
  Plant response rating, Velvetleaf: 0
velvetleaf; [4]
  Plant response rating, Velvetleaf: 0
velvetleaf; [5]
  Plant response rating, Velvetleaf: 0
velvetleaf; [6]
  Velvetleaf plant response rating: 0
velvetleaf; [7]
  Velvetleaf plant response rating: 0
rape; [1]
  Rape plant response rating: 0
rape; [2]
  Rape plant response rating: 0
rape; [3]
  Plant response rating, Rape: 2
rape; [4]
  Plant response rating, Rape: 0
rape; [5]
  Plant response rating, Rape: 0
rape; [6]
  Rape plant response rating: 0
rape; [7]
  Rape plant response rating: 0
rape; [8]
  Rape plant response rating: 0
Surinam grass; [1]
  B. signalgrass plant response rating: 0
Surinam grass; [2]
  B. signalgrass plant response rating: 0
Surinam grass; [3]
  Plant response rating, B. signalgrass: 0
Surinam grass; [4]
  Plant response rating, B. signalgrass: 0
Surinam grass; [5]
  Plant response rating, B. signalgrass: 0
Surinam grass; [6]
  B. signalgrass plant response rating: 0
Surinam grass; [7]
  B. signalgrass plant response rating: 0
Surinam grass; [8]
  B. signalgrass plant response rating: 0
morningglory; [1]
  Morningglory plant response rating: 0
morningglory; [2]
  Morningglory plant response rating: 0
morningglory; [3]
  Plant response rating, Morningglory: 0
morningglory; [4]
  Plant response rating, Morningglory: 0
morningglory; [5]
  Plant response rating, Morningglory: 0
morningglory; [6]
  Morningglory plant response rating: 0
morningglory; [7]
  Morningglory plant response rating: 0
morningglory; [8]
  Morningglory plant response rating: 0
Giant foxtail; [1]
  Giant foxtail plant response rating: 0
Giant foxtail; [2]
  Giant foxtail plant response rating: 0
Giant foxtail; [3]
  Plant response rating, Giant foxtail: 0
Giant foxtail; [4]
  Plant response rating, Giant foxtail: 0
Giant foxtail; [6]
  Giant foxtail plant response rating: 10
Giant foxtail; [7]
  Giant foxtail plant response rating: 0
Giant foxtail; [8]
  Giant foxtail plant response rating: 0
Sugar beet; [1]
  Sugarbeets plant response rating: 0
Sugar beet; [2]
  Sugarbeets plant response rating: 0
Sugar beet; [3]
  Plant response rating, Sugarbeets: 2
Sugar beet; [4]
  Plant response rating, Sugarbeets: 0
Sugar beet; [5]
  Plant response rating, Sugarbeets: 0
Sugar beet; [6]
  Sugarbeets plant response rating: 0
Sugar beet; [7]
  Sugarbeets plant response rating: 0
blackgrass; [1]
  Blackgrass plant response rating: 0
blackgrass; [2]
  Blackgrass plant response rating: 0
blackgrass; [3]
  Plant response rating, Blackgrass: 0
blackgrass; [4]
  Plant response rating, Blackgrass: 0
blackgrass; [5]
  Plant response rating, Blackgrass: 0
blackgrass; [6]
  Blackgrass plant response rating: 0
blackgrass; [7]
  Blackgrass plant response rating: 0
blackgrass; [8]
  Blackgrass plant response rating: 0
Wild oat; [1]
  Wild oats plant response rating: 0
Wild oat; [2]
  Wild oats plant response rating: 0
Wild oat; [4]
  Plant response rating, Wild oats: 0
Wild oat; [5]
  Plant response rating, Wild oats: 0
Wild oat; [6]
  Wild oats plant response rating: 0
Wild oat; [7]
  Wild oats plant response rating: 0
crabgrass; [1]
  Crabgrass plant response rating: 0
crabgrass; [2]
  Crabgrass plant response rating: 3
crabgrass; [3]
  Plant response rating, Crabgrass: 0
crabgrass; [4]
  Plant response rating, Crabgrass: 3
crabgrass; [5]
  Plant response rating, Crabgrass: 5
crabgrass; [6]
  Crabgrass plant response rating: 6
crabgrass; [7]
  Crabgrass plant response rating: 0
crabgrass; [8]
  Crabgrass plant response rating: 4
pigweed; [1]
  Redroot pigweed plant response rating: 0
pigweed; [2]
  Redroot pigweed plant response rating: 0
pigweed; [3]
  Plant response rating, Redroot pigweed: 0
pigweed; [4]
  Plant response rating, Redroot pigweed: 5
pigweed; [5]
  Plant response rating, Redroot pigweed: 6
pigweed; [6]
  Redroot pigweed plant response rating: 6
pigweed; [7]
  Redroot pigweed plant response rating: 0
pigweed; [8]
  Redroot pigweed plant response rating: 0
corn; [1]
  Corn plant response rating: 0
corn; [2]
  Corn plant response rating: 0
corn; [3]
  Plant response rating, Corn: 0
corn; [4]
  Plant response rating, Corn: 0
corn; [5]
  Plant response rating, Corn: 0
corn; [6]
  Corn plant response rating: 0
corn; [7]
  Corn plant response rating: 0
corn; [8]
  Corn plant response rating: 0

## COP(=O)(CCn1c(=O)on(C(=O)N(c2ccc(Cl)cc2)C(C)C)c1=O)OC [Compound 698]
Purple nutsedge; [9]
  Plant response rating, Nutsedge: 0
wheat; [9]
  Plant response rating, Wheat: 0
wheat; [10]
  Plant response rating, Wheat: 6
soybean; [9]
  Plant response rating, Soybean: 0
soybean; [10]
  Plant response rating, Soybean: 3
cocklebur; [9]
  Plant response rating, Cocklebur: 0
cocklebur; [11]
  Plant response rating, Cocklebur: 0
cocklebur; [12]
  Plant response rating, Cocklebur: 0
cocklebur; [10]
  Plant response rating, Cocklebur: 0
bedstraw; [9]
  Plant response rating, Bedstraw: 0
bedstraw; [11]
  Plant response rating, Bedstraw: 0
bedstraw; [12]
  Plant response rating, Bedstraw: 0
bedstraw; [10]
  Plant response rating, Bedstraw: 0
velvetleaf; [9]
  Plant response rating, Velvetleaf: 0
velvetleaf; [10]
  Plant response rating, Velvetleaf: 0
rape; [9]
  Plant response rating, Rape: 0
rape; [10]
  Plant response rating, Rape: 8
Surinam grass; [9]
  Plant response rating, B. signalgrass: 0
Surinam grass; [11]
  Plant response rating, B. signalgrass: 3
Surinam grass; [12]
  Plant response rating, B. signalgrass: 5
Surinam grass; [10]
  Plant response rating, B. signalgrass: 4
morningglory; [9]
  Plant response rating, Morningglory: 0
morningglory; [10]
  Plant response rating, Morningglory: 0
Giant foxtail; [9]
  Plant response rating, Giant foxtail: 0
Giant foxtail; [10]
  Plant response rating, Giant foxtail: 10
Sugar beet; [9]
  Plant response rating, Sugarbeets: 0
Sugar beet; [10]
  Plant response rating, Sugarbeets: 0
blackgrass; [9]
  Plant response rating, Blackgrass: 0
blackgrass; [11]
  Plant response rating, Blackgrass: 2
blackgrass; [12]
  Plant response rating, Blackgrass: 8
blackgrass; [10]
  Plant response rating, Blackgrass: 9
Wild oat; [9]
  Plant response rating, Wild oats: 0
Wild oat; [10]
  Plant response rating, Wild oats: 10
crabgrass; [9]
  Plant response rating, Crabgrass: 3
crabgrass; [11]
  Plant response rating, Crabgrass: 8
crabgrass; [10]
  Plant response rating, Crabgrass: 9
pigweed; [9]
  Plant response rating, Redroot pigweed: 0
pigweed; [10]
  Plant response rating, Redroot pigweed: 0
corn; [9]
  Plant response rating, Corn: 0
corn; [11]
  Plant response rating, Corn: 0
corn; [10]
  Plant response rating, Corn: 0
